Measured values from ChEMBL document CHEMBL5625185 (Eur J Med Chem, 2023).

Key:
Format in all cases: ADME, organism-based
Conditions in all cases: in vivo; call rule not given here
[1] = Drug distribution in wild type mouse spleen at 50 mg/kg, po measured after 1 hr by UPLC-QTOFMS analysis
[2] = Drug distribution in wild type mouse testis at 50 mg/kg, po measured after 1 hr by UPLC-QTOFMS analysis
[3] = Drug distribution in wild type mouse kidney at 50 mg/kg, po measured after 1 hr by UPLC-QTOFMS analysis
[4] = Drug distribution in wild type mouse lung at 50 mg/kg, po measured after 1 hr by UPLC-QTOFMS analysis
[5] = Drug distribution in wild type mouse liver at 50 mg/kg, po measured after 1 hr by UPLC-QTOFMS analysis
[6] = Drug distribution in wild type mouse brain at 50 mg/kg, po measured after 1 hr by UPLC-QTOFMS analysis
[7] = Cmax in wild type mouse at 50 mg/kg, po measured upto 8 hrs by UPLC-QTOFMS analysis

COc1ccc2c3c([nH]c2c1)[C@H](CC(C)C)N1C(=O)[C@H](CCC(=O)NC(C)(C)C)NC(=O)[C@@H]1C3
Drug uptake [1]: Active
Drug uptake [2]: Not Active
Drug uptake [3]: Active
Drug uptake [4]: Active
Drug uptake [5]: Active
Drug uptake [6]: Not Active

COc1ccc2c3c([nH]c2c1)[C@H](CC(C)C)N1C(=O)[C@H](CCC(=O)NC(C)C)NC(=O)[C@@H]1C3
Drug uptake [1]: Active
Drug uptake [2]: Not Active
Drug uptake [3]: Active
Drug uptake [4]: Active
Drug uptake [5]: Active
Cmax [7]: 8.74 µM
Drug uptake [6]: Not Active
